Measured values reported in ChEMBL document CHEMBL4028802, “DILIrank: the largest reference drug list ranked by the risk for developing drug-induced liver injury in humans” (Drug Discov Today, 2016).
Non-standard residues stand in square brackets, D forms with d. Residues, ends and D or L forms follow the SMILES beside them. *: point of attachment. dPhe(4-NHCONH2) = NC(=O)Nc1ccc(C[C@@H](N)C(=O)O)cc1; Dihydroorotyl(S) = O=C1C[C@@H](C(=O)*)NC(=O)N1; dPhe(4-Cl) = N[C@H](Cc1ccc(Cl)cc1)C(=O)O; Phe(4-NH2) = Nc1ccc(C[C@H](N)C(=O)O)cc1; d2Nal = N[C@H](Cc1ccc2ccccc2c1)C(=O)O; Lys(iPr) = CC(C)NCCCC[C@H](N)C(=O)O; d3Pal = N[C@H](Cc1cccnc1)C(=O)O; pGlu = O=C1CC[C@@H](C(=O)O)N1

Columns and labels:
[1] = species on record: Homo sapiens; test: Liver toxicity in human assessed as induction of drug-induced liver injury by measuring severity class index
[2] = species on record: Homo sapiens; test: Liver toxicity in human assessed as induction of drug-induced liver injury by measuring verified drug-induced liver injury concern status
Wherever DILI severity class is given: key of the grades not given here.

| SMILES | DILI_severity_class [1] | DILI_Concern [2] |
| --- | --- | --- |
| Clc1ccc2c(c1)C(c1ccccc1)=NCc1nncn1-2 [ESTAZOLAM] | 0 | No-Dili-Concern |
| COc1cccc2c1[C@@H]1CN(CCCCn3c(=O)[nH]c4c(sc5ncc(-c6ccccc6)nc54)c3=O)C[C@@H]1CO2 [FIDUXOSIN] | 8 | Most-Dili-Concern |
| COC(=O)C1=C(C)NC(C)=C(C(=O)OCCN(C)Cc2ccccc2)C1c1cccc([N+](=O)[O-])c1 (configuration not stated) [NICARDIPINE] | 3 | Ambiguous-Dili-Concern |
| Cc1cc2nc3c(=O)[nH]c(=O)nc-3n(C[C@H](O)[C@H](O)[C@H](O)CO)c2cc1C [RIBOFLAVIN] | 0 | No-Dili-Concern |
| CCOC(=O)[C@H](CCc1ccccc1)N[C@@H](C)C(=O)N1[C@H](C(=O)O)C[C@@H]2CCC[C@@H]21 | 7 | Less-Dili-Concern |
| CCS(=O)(=O)CCn1c([N+](=O)[O-])cnc1C [TINIDAZOLE] | 3 | Less-Dili-Concern |
| CNNCc1ccc(C(=O)NC(C)C)cc1 [PROCARBAZINE] | 3 | Less-Dili-Concern |
| O=C1O[C@H]([C@@H](O)CO)C(O)=C1O [ASCORBIC ACID] | 0 | No-Dili-Concern |
| COc1ccc(C[C@@H]2c3cc(OC)c(OC)cc3CC[N@+]2(C)CCC(=O)OCCCCCOC(=O)CC[N@@+]2(C)CCc3cc(OC)c(OC)cc3[C@H]2Cc2ccc(OC)c(OC)c2)cc1OC.O=S(=O)([O-])c1ccccc1.O=S(=O)([O-])c1ccccc1 [CISATRACURIUM BESYLATE] | 0 | No-Dili-Concern |
| C[C@]12CC[C@@H]3c4ccc(OC(=O)N(CCCl)CCCl)cc4CC[C@H]3[C@@H]1CC[C@@H]2O [ESTRAMUSTINE] | 4 | Most-Dili-Concern |
| CC1(C)S[C@@H]2[C@H](NC(=O)C(C(=O)O)c3ccccc3)C(=O)N2[C@H]1C(=O)O (some centres not stated) [CARBENICILLIN] | 3 | Less-Dili-Concern |
| CO/N=C(\C(=O)N[C@@H]1C(=O)N2C(C(=O)O)=C(COC(N)=O)CS[C@H]12)c1ccco1 [CEFUROXIME] | 5 | Less-Dili-Concern |
| CN[C@@H]1CCc2[nH]c3ccc(C(N)=O)cc3c2C1 [FROVATRIPTAN] | 0 | No-Dili-Concern |
| OCCN1C[C@H](O)[C@@H](O)[C@H](O)[C@H]1CO [MIGLITOL] | 0 | No-Dili-Concern |
| O=C(NCC(O)CO)c1c(I)c(C(=O)NCC(O)CO)c(I)c(N(CCO)C(=O)CO)c1I (configuration not stated) [IOVERSOL] | 0 | No-Dili-Concern |
| NCCS [CYSTEAMINE] | 3 | Ambiguous-Dili-Concern |
| CCN(C)C(=O)Oc1cccc([C@H](C)N(C)C)c1 [RIVASTIGMINE] | 3 | Less-Dili-Concern |
| COc1cc([C@@H]2c3cc4c(cc3[C@@H](O[C@@H]3O[C@@H]5CO[C@@H](c6cccs6)O[C@H]5[C@H](O)[C@H]3O)[C@H]3COC(=O)[C@H]23)OCO4)cc(OC)c1O [TENIPOSIDE] | 3 | Less-Dili-Concern |
| COc1ccc2[nH]c([S+]([O-])Cc3ncc(C)c(OC)c3C)nc2c1 (configuration not stated) [OMEPRAZOLE] | 4 | Less-Dili-Concern |

| SMILES | DILI_severity_class [1] | DILI_Concern [2] |
| --- | --- | --- |
| CCC(=O)O[C@](Cc1ccccc1)(c1ccccc1)[C@H](C)CN(C)C [PROPOXYPHENE] | 3 | Less-Dili-Concern |
| CC(=O)N[C@H](Cc1ccc2ccccc2c1)C(=O)N[C@H](Cc1ccc(Cl)cc1)C(=O)N[C@H](Cc1cccnc1)C(=O)N[C@@H](CO)C(=O)N[C@@H](Cc1ccc(NC(=O)[C@@H]2CC(=O)NC(=O)N2)cc1)C(=O)N[C@H](Cc1ccc(NC(N)=O)cc1)C(=O)N[C@@H](CC(C)C)C(=O)N[C@@H](CCCCNC(C)C)C(=O)N1CCC[C@H]1C(=O)N[C@H](C)C(N)=O [DEGARELIX] (Ac-[d2Nal][dPhe(4-Cl)][d3Pal]S[Phe(4-NH2)](Dihydroorotyl(S))[dPhe(4-NHCONH2)]L[Lys(iPr)]P[dA]-NH2) | 3 | Ambiguous-Dili-Concern |
| CC[C@H](C)[C@@H]1NC(=O)[C@H](Cc2ccc(O)cc2)NC(=O)[C@@H](N)CSSC[C@@H](C(=O)N2CCC[C@H]2C(=O)N[C@@H](CC(C)C)C(=O)NCC(N)=O)NC(=O)[C@H](CC(N)=O)NC(=O)[C@H](CCC(N)=O)NC1=O [OXYTOCIN] | 0 | No-Dili-Concern |
| O=C(O)[C@@H](S)[C@@H](S)C(=O)O | 2 | Less-Dili-Concern |
| CN1C(CSCC(F)(F)F)Nc2cc(Cl)c(S(N)(=O)=O)cc2S1(=O)=O (configuration not stated) [POLYTHIAZIDE] | 2 | Ambiguous-Dili-Concern |
| CC1=C(C(=O)O)N2C(=O)[C@@H](NC(=O)[C@H](N)c3ccc(O)cc3)[C@H]2SC1 [CEFADROXIL] | 7 | Less-Dili-Concern |
| CC(=O)[C@@]1(O)CC[C@H]2[C@@H]3C[C@H](C)C4=CC(=O)CC[C@]4(C)[C@H]3CC[C@@]21C | 2 | Ambiguous-Dili-Concern |
| Cc1cn([C@H]2C[C@H](N=[N+]=[N-])[C@@H](CO)O2)c(=O)[nH]c1=O [ZIDOVUDINE] | 8 | Most-Dili-Concern |
| COc1cc2nc(N3CCN(C(=O)c4ccco4)CC3)nc(N)c2cc1OC [PRAZOSIN] | 3 | Ambiguous-Dili-Concern |
| CC[C@@H](c1cccc(O)c1)[C@@H](C)CN(C)C [TAPENTADOL] | 0 | No-Dili-Concern |
| NC(=O)c1cnccn1 [PYRAZINAMIDE] | 3 | Less-Dili-Concern |
| OCCN1CCN(CCCN2c3ccccc3Sc3ccc(C(F)(F)F)cc32)CC1 [FLUPHENAZINE] | 3 | Ambiguous-Dili-Concern |
| COC1=CC(=O)C[C@@H](C)[C@]12Oc1c(Cl)c(OC)cc(OC)c1C2=O [GRISEOFULVIN] | 8 | Most-Dili-Concern |
| Cc1cccc(C)c1NC(=O)C1CCCCN1C (configuration not stated) [MEPIVACAINE] | 0 | No-Dili-Concern |
| FC(F)(F)C(F)(F)C(F)(F)F | 0 | No-Dili-Concern |
| COc1ccc(Cl)cc1C(=O)NCCc1ccc(S(=O)(=O)NC(=O)NC2CCCCC2)cc1 [GLYBURIDE] | 3 | Less-Dili-Concern |
| CCNC(=O)[C@@H]1CCCN1C(=O)[C@H](CCCNC(=N)N)NC(=O)[C@H](CC(C)C)NC(=O)[C@H](CC(C)C)NC(=O)[C@H](Cc1ccc(O)cc1)NC(=O)[C@H](CO)NC(=O)[C@H](Cc1c[nH]c2ccccc12)NC(=O)[C@H](Cc1c[nH]cn1)NC(=O)[C@@H]1CCC(=O)N1 ([pGlu]HWSYLLRP-NHEt) | 3 | Less-Dili-Concern |
| COCCCOc1cc(C[C@@H](C[C@H](N)[C@@H](O)C[C@H](C(=O)NCC(C)(C)C(N)=O)C(C)C)C(C)C)ccc1OC | 0 | Less-Dili-Concern |
| C[N+](C)(C)CC(=O)O [BETAINE] | 0 | No-Dili-Concern |

| SMILES | DILI_severity_class [1] | DILI_Concern [2] |
| --- | --- | --- |
| OCCOCCN1CCN(C2=Nc3ccccc3Sc3ccccc32)CC1 [QUETIAPINE] | 3 | Less-Dili-Concern |
| C[N+]1(C)CCCC(OC(=O)C(O)(c2ccccc2)c2ccccc2)C1 (configuration not stated) [MEPENZOLATE] | 0 | No-Dili-Concern |
| NCC1(CC(=O)O)CCCCC1 [GABAPENTIN] | 3 | Less-Dili-Concern |
| Cc1cccc(CN2CCN(C(c3ccccc3)c3ccc(Cl)cc3)CC2)c1 (configuration not stated) [MECLIZINE] | 0 | No-Dili-Concern |
| CC(=O)N[C@@H]1[C@@H](O[C@@H]2O[C@@H](C(=O)O)[C@@H](O)[C@H](O)[C@H]2O)[C@@H](OS(=O)(=O)O)[C@@H](CO)O[C@H]1O | 8 | Most-Dili-Concern |
| CC(C)Cc1ccc(C(C)C(=O)O)cc1 (configuration not stated) [IBUPROFEN] | 3 | Less-Dili-Concern |
| CCN1CC(CCN2CCOCC2)C(c2ccccc2)(c2ccccc2)C1=O (configuration not stated) [DOXAPRAM] | 0 | No-Dili-Concern |
| CN(C)C(=O)Oc1ccc[n+](C)c1 [PYRIDOSTIGMINE] | 0 | No-Dili-Concern |
| COc1ccc(OC)c(C(O)CNC(=O)CN)c1 (configuration not stated) [MIDODRINE] | 0 | No-Dili-Concern |
| CC(C(=O)O)c1ccc(-c2ccccc2)c(F)c1 (configuration not stated) [FLURBIPROFEN] | 3 | Ambiguous-Dili-Concern |
| CC(C)N(CCC(C(N)=O)(c1ccccc1)c1ccccn1)C(C)C (configuration not stated) [DISOPYRAMIDE] | 2 | Less-Dili-Concern |
| CN[C@@H](C)Cc1ccccc1 [METHAMPHETAMINE] | 0 | No-Dili-Concern |
| CN(C)Cc1ccc(CSCCN/C(=C\[N+](=O)[O-])NCc2ccc3c(c2)OCO3)o1 [NIPEROTIDINE] | 8 | Most-Dili-Concern |
| CN[C@H]1CC[C@@H](c2ccc(Cl)c(Cl)c2)c2ccccc21 [SERTRALINE] | 3 | Less-Dili-Concern |
| CC#C[C@]1(O)CC[C@H]2[C@@H]3CCC4=CC(=O)CCC4=C3[C@@H](c3ccc(N(C)C)cc3)C[C@@]21C [MIFEPRISTONE] | 0 | No-Dili-Concern |
| COc1ccccc1Oc1c(NS(=O)(=O)c2ccc(C(C)(C)C)cc2)nc(-c2ncccn2)nc1OCCO [BOSENTAN] | 7 | Most-Dili-Concern |
| COc1ccccc1OCC(O)CN1CCN(CC(=O)Nc2c(C)cccc2C)CC1 (configuration not stated) [RANOLAZINE] | 0 | No-Dili-Concern |
| Nc1ncn([C@@H]2O[C@H](CO)[C@@H](O)[C@H]2O)c(=O)n1 [AZACITIDINE] | 8 | Ambiguous-Dili-Concern |
